The values that follow come from US20170290820A1, “METHODS AND COMPOSITIONS FOR TREATING BETA-THALASSEMIA AND SICKLE CELL DISEASE” (Academia Sinica, priority 2013, published 2017).

The structures appear in SMILES notation.

One assay deals with γ globin. In words: absolute quantitative RT-PCR, proportion of γ globin mRNA. It is filed as cell-based. The conditions noted are these: primary human erythroid cells, at IC50, 3 days; mock 7.9%. As to the method: (§1) After 3 days of drug-treatment, the total RNA was extracted by RNA Spin mini kit (Ge-Healthcare) and reverse-transcription was performed by using superscript II (Invitrogen) followed the manufactors instruction. Quantitative PCR was performed on LightCycler with using STBR green master mix followed the manufactors instruction (Roche). The absolute quantitative RT-PCR was calculated by the standard curve with supplying a known copy number of plasmids. The relative quantitative RT-PCR was normalized to the expression levels of the β-actin and compared to the mock control.
(§2) To evaluate the specificity of S51021, SS-2394, HU, and NaB in mediating globin genes activation, the amounts of individual P3-liked globin mRNAs were measured by absolute quantitative RT-PCR.
(§3) The primary human erythroid cells were treated with HU (145.9 μM), NaB (221.6 μM), S51021 (21.8 μM) or SS2394 (2.3 μM) for 3 days, and the expression levels of each globin mRNA were estimated by absolute quantitative RT-PCR analysis. The proportions of individual 3-like globin chains among the total 3-like globin mRNA are shown. Data are presented as the mean±SEM, N=3.

Another assay relates to p38. In words: p38 phosphorylation by western blot. The conditions noted are these: FIG. 5; western blot p-p38/p38, at IC50. Type of assay: cell-based, human. The method, then: FIG. 5 is a graph showing the phosphorylation status of p38 in primary erythroid cells treating with HU, NaB, S51021, or SS-2394. Upper panel: For detection of the phosphorylation status of p38, twenty microgram of total cell lysate extracted from the primary human erythroid cells treated with HU (145.9 μM), NaB (221.6 μM), S51021 (21.8 μM) or SS-2394 (2.3 μM) was analyzed by Western blot analysis using antibody against p-p38 or p38. Lower panel: The signal intensity was quantified by an image-analyzing software. The intensity of p-p38 levels of mock control cells was set as 1. Data are shown as the mean±SEM, N=5.
After 3 days of compound treatment, total protein or histone of the drug-treated cells was extracted. Histone was extracted by histone extraction buffer (10 mM HEPES, 1.5 mM MgCl2, 10 mM KCl, 0.5 mM DTT, 1.5 mM PMSF and 0.2 N HCl) at 4° C. overnight then centrifuged at 13,000 rpm for 5 minutes and collected the supernatant. Thirty microgram of histone extracts were separated in 15% SDS-PAGE and blotted onto PVDF membrane. After blocking with 5% non-fat milk in TBST, the membrane was then incubated with primary antibody against total histone H4 or total acetyl histone H4 at 4° C. overnight. […]
In general terms: Immunoblotting shows a protein as a band on a membrane.

In another assay the test system is δ globin. In words: absolute quantitative RT-PCR, proportion of δ globin mRNA. Type of assay: cell-based. The conditions noted are these: primary human erythroid cells, at IC50, 3 days; mock 3.3%. As to the method:
as §1, §2, §3

The next assay concerns γ globin gene. As to the kind of experiment: γ globin gene induction by relative quantitative RT-PCR. It is filed as cell-based, human. The conditions noted are these: for γ globin induction (IC50): Table 3, γ globin mRNA induction fold at the compound's IC50, 3 days. The method, then: as §1
To search for new agents, which are capable of inducing the expression of γ globin, a series of naphthalimide derivatives with various substituent(s) on the naphthalene ring and the heterocyclic N-atom (A1-A14, B1-B4, C1-C5, D1, and E1-E3, FIG. 2) were synthesized. These derivatives were subjected to evaluating the γ globin induction abilities in differentiated peripheral blood mononuclear cells (PBMCs). The PBMCs isolated from the peripheral blood of donors were expanded and differentiated for a total of 14 days in a two-phase liquid culture. The resulted primary erythoid cells were then treated with different dosages of naphthalimide derivatives individually for another 3 days. The expression levels of the endogenous γ globin gene were estimated by relative quantitative RT-PCR and the proliferation rates of these cells were examined by AlamarBlue cell viability assay. […]; 2-4.5-folds induction of the γ globin gene expression in the compounds-treated cells (FIG. 3).

Turning to `NC(=O)NO` [HU, hydroxyurea], the “γ globin proportion of total β-like globin mRNA” value in the assay with γ globin is listed as 11.2 ± 1.1%. Further, the “phosphorylation level of p38” value with p38 is “significantly increased”. In addition, in the assay with δ globin, the “δ globin proportion of total β-like globin mRNA” value turned out to be 4.5 ± 0.2%. Further, the “γ globin induction (IC50)” value in the assay on γ globin gene is 2.3 fold. In addition, in the assay on γ globin gene (concentration inducing γ globin gene expression 2.3-fold, primary human erythroid cells), the “EC (μM) induction of HU IC50 (2.3 fold)” value was found to be 145.9 µM.
As for `CCCC(=O)[O-].[Na+]` [NaB, sodium butyrate], in the assay on γ globin, the “γ globin proportion of total β-like globin mRNA” value is reported as 10.8 ± 1.0%. Besides, the “phosphorylation level of p38” value with p38 was “significantly increased”. Further, the “δ globin proportion of total β-like globin mRNA” value in the assay on δ globin is listed as 1.8 ± 0.1%. The “expression level of γ globin mRNA” value with γ globin gene (FIG. 4A, at IC50, 3 days, relative to mock) was “not”. Moreover, the “γ globin induction (IC50)” value with γ globin gene came out at 1.3 fold.
